{"source": "patent US11510913B1", "about": "“Modulating expression level of a gene encoding an apurinic/apyrimidinic endodeoxyribonuclease protein by treating a human subject with a nitroxide” (priority 2021, dated 2022)", "key": {"APEX1 [1]": {"tested_on": "APEX1", "experiment": "Effects of Tempol on gene expression in cardiac tissue of mice, chip-based microarray", "assay_type": "in vivo", "experimental": "To assess the effects of Tempol on gene expression, Tempol was administered to experimental mice at a dose of 5 mg/g of food from 14 months to 31 months after birth. Mice receiving the same food without the addition of Tempol were used as a negative control. At the age of 31 months, the experimental animals were sacrificed and the hearts were surgically removed. The expression of a broad spectrum of genes in the cardiac tissue was assessed using chip-based microarray technology. Such chips are well known in the art and are widely used to assess gene expression."}, "APEX1 [2]": {"tested_on": "APEX1", "experiment": "Treating human subjects with Tempol, serum level of APEX1 following treatment", "assay_type": "in vivo", "settings": "2000 mg per day for 180 days", "experimental": "(§1) A 70-kilogram human subject over the age of 65 is identified as having, or known to have, or suspected of having an increased expression level of APEX1. The human subject is administered a dose of 2000 mg of Tempol (or another nitroxide antioxidant) per day for 180 days. This may be administered in a single dose, or may be administered as a number of smaller doses over a 24-hour period: for example, four 500-mg doses at […]. Following treatment, the serum level of APEX1, is decreased.\nas §1, with “subject” for “subject over the age of 65”\nas §1, with “65 and having a cardiovascular disease” for “65”, “for an increased expression level of APEX1. Or a 70-kilogram human subject over the age of 65 is” for “as having, or”, “have a cardiovascular disease and/or” for “have, or suspected of having an”\nas §1, with “at risk” for “over the age”, “developing colorectal cancer” for “65”, “for increased expression level of APEX1. Or a 70-kilogram human subject is” for “as having, or”, “be at risk” for “have, or suspected”, “developing colorectal cancer and/or have” for “having an”\n(§2) A 70-kilogram human subject at risk of developing an autoimmune disease (e.g., rheumatoid arthritis) is identified for increased expression level of APEX1. Or a 70-kilogram human subject is known to be at risk of developing an autoimmune disease and/or have increased expression level of APEX1. The human subject is administered a dose of 2000 mg of Tempol (or another nitroxide antioxidant) per day for 180 days. This may be administered in a single dose, or may be administered as a number of smaller doses over a 24-hour period: for example, four 500-mg doses at […]. Following treatment, the serum level of APEX1, is decreased.\nas §1, with “The” for “A 70-kilogram human subject over the age of 65 is identified as having, or known to have, or suspected of having an increased expression level of APEX1. The”\nas §2, with “a neurodegenerative” for “an autoimmune”, “Parkinson's Disease)” for “rheumatoid arthritis)”, “decreased. […]” for “decreased.”"}}, "data": [{"smiles": "CC1(C)CC(O)CC(C)(C)N1[O]", "note": "[Tempol, 4-hydroxy-2,2,6,6-tetramethylpiperidine-1-oxyl]", "values": [{"measurement": "Fold change (APEX1 expression)", "setting": "APEX1 [1]; Tempol 5 mg/g of food from 14 months to 31 months after birth, cardiac tissue at 31 months, vs mice on same food without Tempol", "value": "−1.23"}, {"measurement": "expression of APEX1 in the cardiac tissue", "setting": "APEX1 [1]; Tempol 5 mg/g of food from 14 to 31 months after birth, microarray", "value": "statistically significant decrease in expression"}, {"measurement": "serum level of APEX1", "setting": "APEX1 [2]; Example 2: 70-kilogram human subject over the age of 65 with increased expression level of APEX1", "value": "decreased"}, {"measurement": "serum level of APEX1", "setting": "APEX1 [2]; Example 3: 70-kilogram human subject with increased expression level of APEX1", "value": "decreased"}, {"measurement": "serum level of APEX1", "setting": "APEX1 [2]; Example 4: human subject over the age of 65 having a cardiovascular disease", "value": "decreased"}, {"measurement": "serum level of APEX1", "setting": "APEX1 [2]; Example 5: human subject at risk of developing colorectal cancer", "value": "decreased"}, {"measurement": "serum level of APEX1", "setting": "APEX1 [2]; Example 6: human subject at risk of developing an autoimmune disease (e.g., rheumatoid arthritis)", "value": "decreased"}, {"measurement": "serum level of APEX1", "setting": "APEX1 [2]; Example 7: human subject at risk of developing a condition due to aging", "value": "decreased"}, {"measurement": "serum level of APEX1", "setting": "APEX1 [2]; Example 8: human subject at risk of developing a neurodegenerative disease (e.g., Parkinson's Disease)", "value": "decreased"}, {"measurement": "serum level of APEX1", "setting": "APEX1 [2]; Example 9: human subject having an infection (e.g., bacterial, fungal, or viral)", "value": "decreased"}]}]}
